14 compounds from ChEMBL document CHEMBL1777678, “2,4-diarylthiazole antiprion compounds as a novel structural class of antimalarial leads” (Bioorg Med Chem Lett, 2011) can be followed below.

What is called IC50 is the concentration needed to halve the response being measured. What is called EC50 is the midpoint of the concentration-response curve.

Active and inactive are the calls of the source. No cut-off for these calls is given here.

Data set [1] has as its system Plasmodium falciparum. Nature of the data set: Antimalarial malarial activity against chloroquine-sensitive Plasmodium falciparum 3D7 infected in human A positive erythrocytes assessed as inhibition of [3H]hypoxanthine incorporation at 19.3 ug/ml after 24 hrs. Format: functional, organism-based.
Data set [2] in a line: Cytotoxicity against mouse SMB cells up to 20 uM. It counts as cell-based.
Data set [3] has as its system Plasmodium falciparum. As to the kind of experiment: Antimalarial malarial activity against chloroquine-resistant Plasmodium falciparum K1 infected in human A positive erythrocytes assessed as inhibition of [3H]hypoxanthine incorporation after 24 hrs. It counts as functional, organism-based.
The nature of data set [4]: Antiprion activity against Chandler strain of sheep scrapie prion protein infected in mouse SMB cells assessed as clearance of disease-associated scrapie prion protein. It counts as cell-based, Ovis aries.
The subject of data set [5] is Plasmodium falciparum. Nature of the data set: Antimalarial malarial activity against chloroquine-sensitive Plasmodium falciparum 3D7 infected in human A positive erythrocytes assessed as inhibition of [3H]hypoxanthine incorporation after 24 hrs. Format: functional, organism-based.
The test system of data set [6] is Plasmodium falciparum. As to the kind of experiment: Antimalarial malarial activity against chloroquine-resistant Plasmodium falciparum K1 infected in human A positive erythrocytes assessed as inhibition of [3H]hypoxanthine incorporation 10 ug/ml after 24 hrs. It counts as functional, organism-based.
The mark [7] stands for this setting: Ovis aries, SMB, read-out: EC50.

As to `CCN(CC)CCNC(=O)c1sc(-c2ccccc2)nc1-c1ccccc1`, the inhibition result with Plasmodium falciparum [1] was “inactive”. The Activity entry in data set [2] is “Non-toxic”. Besides, the IC50 in the data set with Plasmodium falciparum [3] is 0.71 µM. Further, in data set [4] (setting [7]), the EC50 worked out at 4.9 µM.
Consider `O=C(NCCCn1ccnc1)c1sc(-c2ccccc2)nc1-c1ccccc1`, for which, in data set [2], the Activity result was “Non-toxic”. Moreover, the IC50 was found to be 11.5 µM in the data set on Plasmodium falciparum [3] and 13.9 µM in the data set with Plasmodium falciparum [5]. The EC50 entry in data set [4] (smb) is reported as “Not Active”.
Consider `O=C(NCCN1CCOCC1)c1sc(-c2ccccc2)nc1-c1ccccc1`, for which the inhibition result in the data set on Plasmodium falciparum [1] and in the data set with Plasmodium falciparum [6] was “inactive” in each case. Further, the Activity entry in data set [2] is “Non-toxic”. The EC50 result in data set [4] (smb) is listed as “Not Active”.
With `CCN(CC)CCCC(C)NC(=O)c1sc(-c2ccccc2)nc1-c1ccccc1` (stereo not drawn), the Activity entry in data set [2] is recorded as “Non-toxic”. In addition, the IC50 with Plasmodium falciparum [3] amounted to 3.8 µM; with Plasmodium falciparum [5], 9.5 µM. The EC50 in data set [4] (setting [7]) worked out at 2.9 µM.
Taken in the same sequence, the figures for `CCN(CC)CCCNC(=O)c1sc(-c2ccccc2)nc1-c1ccccc1` were “Non-toxic”, 13.3 µM, 1 µM and 2.3 µM.
Take `O=C(NCc1ccccn1)c1sc(-c2ccccc2)nc1-c1ccccc1`: the Activity result in data set [2] is given as “Non-toxic”. The results for the IC50 in the data set with Plasmodium falciparum [3] and in the data set with Plasmodium falciparum [5] were 15 µM and 19.7 µM, respectively. The EC50 result in data set [4] (smb) is “Not Active”.
For the compound `CCN(CC)CCNC(=O)c1sc(-c2ccc(OC)cc2)nc1-c1ccccc1`, the inhibition result with Plasmodium falciparum [1] was “inactive”. Moreover, the Activity entry in data set [2] was “Non-toxic”. In the data set on Plasmodium falciparum [3], the IC50 was determined as 7.7 µM. For the same compound, in data set [4] (setting [7]), the EC50 turned out to be 4 µM.
The matching figures for `CCN(CC)CCNC(=O)c1sc(-c2cccnc2)nc1-c1ccccc1`: “inactive”, “Non-toxic”, 5.3 µM and 20 µM.
As for `CCN(CC)CCNC(=O)c1sc(-c2cccs2)nc1-c1ccccc1`, in data set [2], the Activity result is “Non-toxic”. Further, the IC50 with Plasmodium falciparum [3] was determined as 4.4 µM; in the data set on Plasmodium falciparum [5], 13.8 µM. Also, in data set [4] (setting [7]), the EC50 came to 6.7 µM.
For the compound `O=C(NCCN1CCCC1)c1sc(-c2ccccc2)nc1-c1ccccc1`, the inhibition entry with Plasmodium falciparum [1] was “inactive”. Also, in data set [2], the Activity entry is reported as “Toxic”. The IC50 in the data set on Plasmodium falciparum [3] was found to be 14.9 µM. Also, the EC50 in data set [4] (setting [7]) is 10.7 µM.
Regarding `CCN(CC)CCCC(C)Nc1ccnc2cc(Cl)ccc12` (stereo not drawn) [CHLOROQUINE], in data set [4] (setting [7]), the EC50 was found to be 2.3 µM.
As to `CN(C)CCNC(=O)c1sc(-c2ccccc2)nc1-c1ccccc1`, the inhibition entry in the data set on Plasmodium falciparum [1] is “inactive”. Also, in data set [2], the Activity entry is “Toxic”. The concentration for half-maximal inhibition (IC50) in the data set with Plasmodium falciparum [3] is 8.8 µM. Moreover, the concentration giving a half-maximal response (EC50) in data set [4] (setting [7]) was found to be 4.8 µM.
Turning to `O=C(c1sc(-c2ccccc2)nc1-c1ccccc1)N1CCC(N2CCCC2)CC1`, in data set [2], the Activity result is recorded as “Non-toxic”. Moreover, the figures for the IC50 in the data set on Plasmodium falciparum [3] and in the data set with Plasmodium falciparum [5] were 6.2 µM and 12 µM, respectively. In addition, the EC50 in data set [4] (setting [7]) was found to be 5.5 µM.
The matching figures for `O=C(c1sc(-c2ccccc2)nc1-c1ccccc1)N1CCC(N2CCCCC2)CC1`: “Non-toxic”, 0.83 µM, 20.2 µM and 1.9 µM.
